Source: ChEMBL document CHEMBL3046049, “Protoporphyrinogen-IX Oxidase Inhibition by N-(2, 4, 5-Trisubstituted phenyl)-3, 4, 5, 6-tetrahydrophthalimides” (J Pestic Sci, 1997)

Assays:
Scenedesmus acutus = assay: Inhibition of light-induced ethane formation in Scenedesmus acutus after 20 hr; assay type: functional, organism-based; conditions: read-out: pI50 (converted)
[1] = molecular target: T1, Protoporphyrinogen IX oxidase (Zea mays, UniProt Q9FYV8); assay: Inhibition of protoporphyrinogen IX oxidase in Zea mays (maize) seed after 5 min by Dixon plot analysis; conditions: read-out: pI50 (converted)
T1 sequence (Q9FYV8 whole entry): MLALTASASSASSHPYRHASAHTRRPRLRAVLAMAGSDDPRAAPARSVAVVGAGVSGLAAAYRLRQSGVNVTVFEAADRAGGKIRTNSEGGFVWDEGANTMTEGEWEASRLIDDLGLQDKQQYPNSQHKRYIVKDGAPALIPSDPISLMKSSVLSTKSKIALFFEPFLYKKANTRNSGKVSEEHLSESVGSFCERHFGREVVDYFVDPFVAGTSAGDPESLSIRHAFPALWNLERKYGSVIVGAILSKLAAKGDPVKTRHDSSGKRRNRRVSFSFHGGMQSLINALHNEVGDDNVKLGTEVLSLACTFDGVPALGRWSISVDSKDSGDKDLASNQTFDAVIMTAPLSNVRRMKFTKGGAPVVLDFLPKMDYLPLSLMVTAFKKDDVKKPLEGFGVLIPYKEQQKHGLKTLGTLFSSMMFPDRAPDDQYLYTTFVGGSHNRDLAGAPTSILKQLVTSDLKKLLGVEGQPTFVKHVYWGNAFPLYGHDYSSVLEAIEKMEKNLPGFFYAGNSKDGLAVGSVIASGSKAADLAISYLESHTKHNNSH

Row | IC50 (Scenedesmus acutus) [nM] | IC50 [1] [nM] | Compound
1 | 501 | 0.398 | C#CCOc1cc(N2C(=O)C3=C(CCCC3)C2=O)ccc1Cl
2 | 126 | 2 | C#CCOc1cc(N2C(=O)C3=C(CCCC3)C2=O)c(F)cc1Cl
3 | 251 | 3.98 | O=C1C2=C(CCCC2)C(=O)N1c1ccc(Cl)cc1F
4 | 79.4 | 1.26 | CC(C)OC(=O)c1cc(N2C(=O)C3=C(CCCC3)C2=O)c(F)cc1Cl
5 | 200 | 1 | CC(C)OC(=O)c1cc(N2C(=O)C3=C(CCCC3)C2=O)ccc1Cl
6 | – | 1 | C#CCOc1cc(-n2nc3c(c2Cl)CCCC3)c(F)cc1Cl
7 | 10000 | 1580 | O=C1C2=C(CCCC2)C(=O)N1c1ccccc1
8 | 10000 | 2510 | O=C1C2=C(CCCC2)C(=O)N1c1ccccc1F
9 | 631 | 1 | C#CCN1C(=O)COc2ccc(N3C(=O)C4=C(CCCC4)C3=O)cc21

Row | Compound | IC50 (Scenedesmus acutus) [nM] | IC50 [1] [nM]
10 | O=C1C2=C(CCCC2)C(=O)N1c1ccc(Cl)cc1 [CHLOROPHTHALIUM] | 1000 | 25.1
11 | CCCCCOC(=O)COc1cc(N2C(=O)C3=C(CCCC3)C2=O)c(F)cc1Cl [FLUMICIORAC-PENTYL] | – | 1.1
12 | C#CCN1C(=O)COc2cc(F)c(N3C(=O)C4=C(CCCC4)C3=O)cc21 [FLUMIOXAZIN] | 316 | –
13 | C#CC(C)Oc1cc(N2C(=O)C3=C(CCCC3)C2=O)c(F)cc1Cl (configuration not stated) [FLUMIPROPYN] | 105 | 1
14 | COC(=O)CSc1cc(/N=c2\sc(=O)n3n2CCCC3)c(F)cc1Cl [FLUTHIACETMETHYL] | 955 | 47.9
15 | CC(C)=C1OC(=O)N(c2cc(OC3CCCC3)c(Cl)cc2F)C1=O [PENTOXAZONE] | 631 | 5.25
